Reference: patent publication US20230109801A1 (Blue Oak Pharmaceuticals, Inc., priority 2020, published 2023)
Structures can show the parent of a compound that is named as a salt.

System: mice
Test: SmartCube in vivo neuropharmacological behavioral assay
Settings: for minimal effective dose: Mus musculus, ip, read-out: MED (minimal effective dose); for AD: antidepressant, percent probability / AG: analgesic, percent probability / AP: antipsychotic, percent probability / AX: anxiolytic, percent probability / CE: cognitive enhancer, percent probability / HA: hallucinogenic, percent probability / MS: mood stabilizer, percent probability / PS, percent probability / SD: sedative hypnotic, percent probability / SE: side effects, percent probability / UN: uncharacterized CNS activity, percent probability / XG: anxiogenic, percent probability: SmartCube, i.p. 15 min before test, at the MED
Method: The compounds were evaluated for their CNS related properties (e.g., the treatment, prevention or diagnosis of CNS or CNS-related disorders and/or amelioration of symptoms) using neuropharmacological screening methods described in S. L. Roberts et al., Front. Neurosci. 2011, 5:103 (hereinafter referred to as “Roberts,” the contents of which are incorporated herein by reference in their entirety).
According to Roberts, intact systems are useful in detecting improvement in disease-relevant endpoints, because psychiatric diseases generally result from disorders of cell-cell communication or circuitry. The endpoints are typically behavioral in nature, often requiring human observation and interpretation. In order to test multiple compounds for behavioral effects relevant to neurological and psychiatric diseases and disorders, PsychoGenics, Inc. (Paramus, N.J. “PGI”) developed SmartCube®, an automated system in which behaviors of compound-treated mice are captured by digital video and analyzed with computer algorithms to facilitate testing of multiple compounds for behavioral effects relevant to psychiatric disease. (D. Brunner et al., Drug Discov. Today 2002, 7:S107-S112; Alexandrov et al., Eur. J. Pharmacol. 2015, 753:127-134; the contents of each of which are incorporated herein by reference in their entirety).
The SmartCube® system is described in Example 2.2 of U.S. Pat. No. 9,758,529 and Example 289 of WIPO Publication No. WO2018/023070, the contents of each of which are incorporated herein by reference in their entirety.
According to the present disclosure, compounds identified may be evaluated using the SmartCube® system. The results of such analysis correlate certain patterns or combinations of behaviors to CNS effects along a percent probability scale of 0-100 where zero (O) reflects the limit of quantitation (LOQ).
The compounds of the present disclosure were evaluated for their CNS related properties (e.g., the treatment, prevention or diagnosis of CNS or CNS-related disorders and/or amelioration of symptoms) using neuropharmacological screening methods described in S. L. Roberts et al., Front. Neurosci. 2011, 5:103 (hereinafter referred to as “Roberts,” the contents of which are incorporated herein by reference in their entirety).
The SmartCube® system described herein was utilized to compare the behavioral signature of a test compound to a database of behavioral signatures obtained using a large set of diverse reference compounds (including but not limited to antipsychotics, anxiolytics, antidepressants and bipolar disorder medicine), thereby predicting the neuropharmacological effects of a test compound by similarity to major classes of compounds. It produces an activity signature indicating the probability that the activity of the test compound at the administered dose matches a given class of neuropharmacological agents. The test compound is simultaneously compared against multiple classes of agents; thus, a separate probability is generated for each behavioral effect measured (such as but not limited to anxiolytic activity and analgesic activity).
The compounds of the present disclosure were dissolved in a mixture of Pharmasolve™ (N-methyl-2-pyrrolidone (NMP)) and were injected i.p. 15 min. before the behavioral test. For each compound, injections were administered at different dose levels (e.g., 0.3, 1, 3, 10 and 30 mg per kg (mpk)). A compound's minimal effective dose (MED; see Table 3) is a measure of the compound's potency. The MED was defined as the dose (in mpk) having 50% or more total activity in SmartCube®. For each behavioral effect measured, results at the MED are presented. CNS activities of the compounds were recorded (see Table 2). In Table 1, a key to the percent probabilities (probability×100) for each behavioral effect (“X”) are defined provided, where LOQ is the limit of quantification.

[1] = dose having 50% or more total activity in SmartCube, i.p.

Row | Molecule | minimal effective dose [1] [mg/kg] | AD: antidepressant, percent probability | AG: analgesic, percent probability | AP: antipsychotic, percent probability | AX: anxiolytic, percent probability | CE: cognitive enhancer, percent probability | HA: hallucinogenic, percent probability | MS: mood stabilizer, percent probability | PS, percent probability | SD: sedative hypnotic, percent probability | SE: side effects, percent probability | UN: uncharacterized CNS activity, percent probability | XG: anxiogenic, percent probability | MED (minimal effective dose) [1]
1 | C1=CC2NC1c1ccccc12 [Compound 52, 11-Azatricyclo[6.2.1.0^2,7]undeca-2,4,6,9-tetraene hydrochloride] | > 30 | + (LOQ ≤ X < 5%) | + (LOQ ≤ X < 5%) | + (LOQ ≤ X < 5%) | + (LOQ ≤ X < 5%) | + (LOQ ≤ X < 5%) | + (LOQ ≤ X < 5%) | + (LOQ ≤ X < 5%) | + (LOQ ≤ X < 5%) | + (LOQ ≤ X < 5%) | + (LOQ ≤ X < 5%) | + (LOQ ≤ X < 5%) | + (LOQ ≤ X < 5%) | –
2 | Clc1cccc2c1C1C=CC2N1 (centres unmarked) [Compound 11, 3-Chloro-11-azatricyclo[6.2.1.0^2,7]undeca-2,4,6,9-tetraene hydrochloride] | > 30 | + (LOQ ≤ X < 5%) | + (LOQ ≤ X < 5%) | + (LOQ ≤ X < 5%) | ++ (5% ≤ X < 25%) | ++ (5% ≤ X < 25%) | + (LOQ ≤ X < 5%) | + (LOQ ≤ X < 5%) | + (LOQ ≤ X < 5%) | + (LOQ ≤ X < 5%) | + (LOQ ≤ X < 5%) | ++ (5% ≤ X < 25%) | + (LOQ ≤ X < 5%) | –
3 | COc1cccc2c1C1C=CC2N1 (centres unmarked) [Compound 16, 3-Methoxy-11-azatricyclo[6.2.1.0^2,7]undeca-2,4,6,9-tetraene hydrochloride] | > 30 | + (LOQ ≤ X < 5%) | + (LOQ ≤ X < 5%) | + (LOQ ≤ X < 5%) | ++ (5% ≤ X < 25%) | + (LOQ ≤ X < 5%) | + (LOQ ≤ X < 5%) | + (LOQ ≤ X < 5%) | + (LOQ ≤ X < 5%) | + (LOQ ≤ X < 5%) | + (LOQ ≤ X < 5%) | ++ (5% ≤ X < 25%) | + (LOQ ≤ X < 5%) | –
4 | CC1C2NC(c3ccccc32)C1C (centres unmarked) [Compound 48, 9,10-Dimethyl-11-azatricyclo[6.2.1.0^2,7]undeca-2,4,6-triene hydrochloride] | 10 to 30 | ++ (5% ≤ X < 25%) | + (LOQ ≤ X < 5%) | + (LOQ ≤ X < 5%) | ++ (5% ≤ X < 25%) | ++++ (50% ≤ X <1 00%) | ++ (5% ≤ X < 25%) | + (LOQ ≤ X < 5%) | ++ (5% ≤ X < 25%) | + (LOQ ≤ X < 5%) | + (LOQ ≤ X < 5%) | + (LOQ ≤ X < 5%) | + (LOQ ≤ X < 5%) | –
5 | c1ccc2c(c1)C1CCC2N1C1CC1 [Compound 45, 11-Cyclopropyl-11-azatricyclo[6.2.1.0^2,7]undeca-2,4,6-triene hydrochloride] | 10 to 30 | ++ (5% ≤ X < 25%) | ++ (5% ≤ X < 25%) | ++ (5% ≤ X < 25%) | ++ (5% ≤ X < 25%) | ++ (5% ≤ X < 25%) | + (LOQ ≤ X < 5%) | + (LOQ ≤ X < 5%) | + (LOQ ≤ X < 5%) | + (LOQ ≤ X < 5%) | + (LOQ ≤ X < 5%) | ++ (5% ≤ X < 25%) | + (LOQ ≤ X < 5%) | –
6 | 11-[(2E)-Pent-2-en-1-yl]-11-azatricyclo[6.2.1.0^2,7]undeca-2,4,6,9-tetraene hydrochloride [Compound 9] | – | + (LOQ ≤ X < 5%) | + (LOQ ≤ X < 5%) | + (LOQ ≤ X < 5%) | + (LOQ ≤ X < 5%) | + (LOQ ≤ X < 5%) | + (LOQ ≤ X < 5%) | + (LOQ ≤ X < 5%) | + (LOQ ≤ X < 5%) | + (LOQ ≤ X < 5%) | + (LOQ ≤ X < 5%) | + (LOQ ≤ X < 5%) | + (LOQ ≤ X < 5%) | + (30 mg/kg < +)
7 | CCC(C)N1C2CCC1c1ccccc12 (centres unmarked) [Compound 44, 11-(Butan-2-yl)-11-azatricyclo[6.2.1.0^2,7]undeca-2,4,6-triene hydrochloride] | 1 to 10 | ++++ (50% ≤ X <1 00%) | + (LOQ ≤ X < 5%) | + (LOQ ≤ X < 5%) | ++ (5% ≤ X < 25%) | + (LOQ ≤ X < 5%) | + (LOQ ≤ X < 5%) | + (LOQ ≤ X < 5%) | ++ (5% ≤ X < 25%) | + (LOQ ≤ X < 5%) | + (LOQ ≤ X < 5%) | + (LOQ ≤ X < 5%) | + (LOQ ≤ X < 5%) | –
8 | CC(C)N1C2CCC1c1c(Cl)cccc12 (centres unmarked) [Compound 14, 3-Chloro-11-(propan-2-yl)-11-azatricyclo[6.2.1.0^2,7]undeca-2,4,6-triene hydrochloride] | > 30 | +++ (25% ≤ X < 50%) | ++ (5% ≤ X < 25%) | + (LOQ ≤ X < 5%) | ++ (5% ≤ X < 25%) | + (LOQ ≤ X < 5%) | + (LOQ ≤ X < 5%) | + (LOQ ≤ X < 5%) | ++ (5% ≤ X < 25%) | + (LOQ ≤ X < 5%) | + (LOQ ≤ X < 5%) | + (LOQ ≤ X < 5%) | + (LOQ ≤ X < 5%) | –
